# From paper PMC8599359 (Molecular Neurobiology, 2021)
# How the values were obtained:
# [1] = target: T1, MMP-8 (Homo sapiens, UniProt P22894); experiment: Fluorometric substrate assay (MMP inhibitor profiling kit); format: biochemical
# T1 construct: purchased Enzo life sciences BML-AK308
# Procedure: (§1) Kit contained a panel of ten MMPs and a quenched fluorogenic substrate OMNIMMP® RED. Composition of a quenched fluorogenic substrate was TQ3-GABA-Pro-Cha-Abu-Smc-His-Ala-Dab(6’-TAMRA)-Ala-Lys-NH2 [TQ3 = quencher; GABA = 4-aminobutyric acid; Cha = L-cyclohexylalanine; Abu = 2-aminobutyric acid; Smc = S-methyl-L-cysteine; Dab = 2,4-diaminobutyric acid; 6’-TAMRA = 6’-tetramethylrhodamine]. Experiment was performed as per instructions provided in the manufacturer’s manual. The assays were performed in a 96-well, black, flat, microplate format. The compound NNGH was provided as a prototypic control inhibitor. […] Untreated MMPs were used as control. The experiment was performed in biological triplicates. After 60-min incubation, fluorogenic substrate OMNIMMP® RED was added to each reaction/well to start the reaction. The plate was continuously read at Ex/Em = 545/576 nm (cutoff at 570 nm) for 30 min with 1-min time intervals at constant temperature, 37 °C, using Molecular Devices SpectraMax M3 plate reader with SoftMax Pro 6.2 software.
# [2] = target: T2, MMP-14 (Homo sapiens, UniProt P50281); experiment: as above; format: biochemical
# T2 construct: purchased Enzo life sciences BML-AK308
# Procedure: as §1
# [3] = target: T3, MMP-1 (Homo sapiens, UniProt P03956); experiment: as above; format: biochemical; settings: human recombinant MMP-1, 60 min preincubation, four-parameter fit
# T3 construct: purchased Enzo life sciences BML-AK308
# T3 sequence (P03956 100-469): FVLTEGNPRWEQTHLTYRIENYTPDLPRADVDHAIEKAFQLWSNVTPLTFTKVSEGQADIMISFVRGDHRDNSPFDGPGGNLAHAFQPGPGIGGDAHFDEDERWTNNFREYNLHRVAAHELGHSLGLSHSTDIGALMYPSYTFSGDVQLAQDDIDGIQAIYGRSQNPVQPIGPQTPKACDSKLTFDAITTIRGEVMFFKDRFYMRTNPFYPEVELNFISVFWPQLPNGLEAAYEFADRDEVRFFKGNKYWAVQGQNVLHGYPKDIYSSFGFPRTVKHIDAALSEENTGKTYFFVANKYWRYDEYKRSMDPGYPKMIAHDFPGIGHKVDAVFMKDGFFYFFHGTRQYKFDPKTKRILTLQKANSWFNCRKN
# Procedure: as §1
# [4] = target: T4, MMP-7 (Homo sapiens, UniProt P09237); experiment: as above; format: biochemical; settings: human recombinant MMP-7, 60 min preincubation, four-parameter fit
# T4 construct: purchased Enzo life sciences BML-AK308
# T4 sequence (P09237 95-267): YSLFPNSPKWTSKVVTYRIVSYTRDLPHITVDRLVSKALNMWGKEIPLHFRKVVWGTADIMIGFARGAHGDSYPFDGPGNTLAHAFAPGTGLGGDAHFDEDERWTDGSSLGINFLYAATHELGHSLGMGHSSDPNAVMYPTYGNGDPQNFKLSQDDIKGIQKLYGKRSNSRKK
# Procedure: as §1
# [5] = target: T5, MMP-13 (Homo sapiens, UniProt P45452); experiment: as above; format: biochemical
# T5 construct: purchased Enzo life sciences BML-AK308
# Procedure: as §1
# [6] = target: T6, MMP-3 (Homo sapiens, UniProt P08254); experiment: as above; format: biochemical; settings: human recombinant MMP-3, 60 min preincubation, four-parameter fit
# T6 construct: purchased Enzo life sciences BML-AK308
# T6 sequence (P08254 100-477): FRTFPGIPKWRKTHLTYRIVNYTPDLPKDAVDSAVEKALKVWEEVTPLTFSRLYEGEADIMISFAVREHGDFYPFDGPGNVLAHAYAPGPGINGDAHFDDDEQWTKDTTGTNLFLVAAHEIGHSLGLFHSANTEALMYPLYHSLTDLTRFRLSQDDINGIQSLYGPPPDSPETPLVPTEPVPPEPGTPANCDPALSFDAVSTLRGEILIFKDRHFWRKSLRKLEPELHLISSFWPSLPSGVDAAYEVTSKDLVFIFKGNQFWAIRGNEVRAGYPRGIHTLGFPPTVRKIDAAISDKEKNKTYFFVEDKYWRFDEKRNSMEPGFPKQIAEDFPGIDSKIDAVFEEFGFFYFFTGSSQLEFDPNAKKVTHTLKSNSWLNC
# Procedure: as §1
# [7] = target: T7, MMP-19 (Homo sapiens, UniProt Q99542); experiment: as above; format: biochemical; settings: human recombinant MMP-19, 60 min preincubation, four-parameter fit
# T7 construct: purchased Enzo life sciences BML-AK308
# T7 sequence (Q99542 98-508): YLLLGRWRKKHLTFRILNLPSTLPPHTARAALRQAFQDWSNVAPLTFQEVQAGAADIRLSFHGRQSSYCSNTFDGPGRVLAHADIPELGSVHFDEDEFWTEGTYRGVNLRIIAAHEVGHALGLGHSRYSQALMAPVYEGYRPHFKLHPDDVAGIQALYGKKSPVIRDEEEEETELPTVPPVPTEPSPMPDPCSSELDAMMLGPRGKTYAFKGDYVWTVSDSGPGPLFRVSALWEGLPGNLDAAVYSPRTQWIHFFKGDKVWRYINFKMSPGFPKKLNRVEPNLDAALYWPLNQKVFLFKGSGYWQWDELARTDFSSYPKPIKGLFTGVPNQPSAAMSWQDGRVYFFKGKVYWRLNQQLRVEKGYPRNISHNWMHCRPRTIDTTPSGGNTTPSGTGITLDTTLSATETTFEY
# Procedure: as §1
# [8] = tested on: MMP-2; experiment: MMP expression in embryo brain (Western blot); format: in vivo, mouse; settings: GD 16.5, DTG vs control
# Procedure: (§2) At GD 16.5, embryo whole brain tissues were isolated and homogenized in lysis buffer. Whole brain tissue homogenates were analyzed for expression of MMP-2, 9, and 14 using Western blot assay. Six pups were randomly selected from 6 different dams for both DTG- and vehicle-treated groups. Tissue lysates were centrifuged at 16,000 × g at 4 °C for 20 min and supernatants were collected. Total protein levels in each sample were quantitated using Pierce™ BCA Protein Assay Kit (Thermo Fisher Scientific). Fifteen micrograms of protein for each sample was ran on 10% SDS–polyacrylamide gel. Proteins were transferred to activated PVDF membrane. Membranes were blocked with 5% non-fat milk (BIO-RAD) for 1 h and incubated with individual primary antibody overnight at 4 °C on a shaker. The primary antibodies used were rabbit monoclonal anti-MMP-2 (ab181286, abcam, Cambridge, MA), rabbit polyclonal anti-MMP-9 (ab38898, abcam), rabbit monoclonal anti-MMP-14 (ab51074, abcam), rabbit monoclonal GAPDH (Cell Signaling Technology, Inc., Danvers, MA), and mouse monoclonal β-actin (Santa Cruz Biotechnology, Dallas, TX). All the primary antibodies were used at 1:2000 dilution. After overnight incubation with primary antibody, the membranes were washed with Tris-buffered saline with 0.1% Tween® 20 detergent (TBST) three times (5 min each wash). Membranes were then incubated with secondary antibody for 1 h at room temperature. The secondary antibodies used were goat anti-rabbit IgG H&L (HRP) (ab205718, abcam) and goat anti-mouse IgG H&L (HRP) (ab205719, abcam). For secondary antibodies, 1:10,000 dilutions were used. Blots were developed using SuperSignal™ West Femto Maximum Sensitivity Substrate (Thermo Fisher Scientific) and iBright 750 Imaging System. Band intensity was analyzed using ImageJ software.
# [9] = tested on: MMP-9; experiment: MMP expression in embryo brain (Western blot); format: in vivo, mouse; settings: GD 16.5, DTG vs control
# Procedure: as §2
# [10] = tested on: MMP-14; experiment: MMP expression in embryo brain (Western blot); format: in vivo, mouse; settings: GD 16.5, DTG vs control
# Procedure: as §2
# T1 sequence (P22894 101-467): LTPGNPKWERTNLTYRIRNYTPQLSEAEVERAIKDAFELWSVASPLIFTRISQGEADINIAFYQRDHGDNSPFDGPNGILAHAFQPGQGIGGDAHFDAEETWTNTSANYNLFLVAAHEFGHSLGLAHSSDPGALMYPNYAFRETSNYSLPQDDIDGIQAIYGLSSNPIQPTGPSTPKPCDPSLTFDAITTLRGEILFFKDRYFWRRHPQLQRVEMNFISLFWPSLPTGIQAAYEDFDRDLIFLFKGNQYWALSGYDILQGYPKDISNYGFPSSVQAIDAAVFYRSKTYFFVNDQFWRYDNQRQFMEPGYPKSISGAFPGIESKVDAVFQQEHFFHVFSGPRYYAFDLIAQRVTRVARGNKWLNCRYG
smiles,measurement,setting,value
"C[C@@H]1CCO[C@H]2Cn3cc(C(=O)NCc4ccc(F)cc4F)c(=O)c(O)c3C(=O)N12 [DTG, Dolutegravir]",inhibitory effect compared to doxycycline,"[1]; MMP-8, 20 µM",higher inhibitory effect
same,IC50,"[1]; human recombinant MMP-8, 60 min preincubation, four-parameter fit",12.1 µM
same,inhibitory effect compared to doxycycline,"[2]; MMP-14, 20 µM",higher inhibitory effect
same,IC50,"[2]; human recombinant MMP-14, 60 min preincubation, four-parameter fit",10.5 µM
same,IC50,[3],83.9 µM
same,IC50,[4],309 µM
same,inhibitory effect compared to doxycycline,"[5]; MMP-13, 20 µM",higher inhibitory effect
same,IC50,"[5]; human recombinant MMP-13, 60 min preincubation, four-parameter fit",36.5 µM
same,IC50,[6],60.3 µM
same,IC50,[7],54 µM
same,protein levels of MMP-2 in embryo brain tissue,[8],No significant differences
same,protein levels of MMP-9 in embryo brain tissue,[9],No significant differences
same,protein levels of MMP-14 in embryo brain tissue,[10],No significant differences
